In US20210308089A1, “METHODS OF TREATING AND/OR PREVENTING VIRAL INFECTIONS AND/OR DISEASES CAUSED BY VIRUSES IN A SUBJECT IN NEED THEREOF” (priority 2020, published 2021):
Like-named read-outs stand apart in the source and are kept apart here.

Tested on: patients of the REDUCE-IT and earlier EPA placebo-controlled trials
Type: in vivo, human
Settings: for Placebo-Adjusted % Change / ARR / NNT / Risk Ratio (95% CI): R-I
[1] = Hematocrit shift: normal to high (Day 120)
[2] = Hematocrit shift: normal to high (Day 360)
[3] = Hematocrit shift: normal to high (Day 720)
[4] = Hematocrit shift: normal to high (Day 1080)
[5] = Hematocrit shift: normal to high (Day 1440)
[6] = Hematocrit shift: normal to high (Day 1800)
[7] = Hematocrit shift: normal to low (Day 120)
[8] = Hematocrit shift: normal to low (Day 360)
[9] = Hematocrit shift: normal to low (Day 720)
[10] = Hematocrit shift: normal to low (Day 1080)
[11] = Hematocrit shift: normal to low (Day 1440)
[12] = Hematocrit shift: normal to low (Day 1800)
[13] = Hemoglobin shift: normal to high (Day 120)
[14] = Hemoglobin shift: normal to high (Day 360)
[15] = Hemoglobin shift: normal to high (Day 720)
[16] = Hemoglobin shift: normal to high (Day 1080)
[17] = Hemoglobin shift: normal to high (Day 1440)
[18] = Hemoglobin shift: normal to high (Day 1800)
[19] = Hemoglobin shift: normal to low (Day 120)
[20] = Hemoglobin shift: normal to low (Day 360)
[21] = Hemoglobin shift: normal to low (Day 720)
[22] = Hemoglobin shift: normal to low (Day 1080)
[23] = Hemoglobin shift: normal to low (Day 1440)
[24] = Hemoglobin shift: normal to low (Day 1800)

CC/C=C\C/C=C\C/C=C\C/C=C\C/C=C\CCCC(=O)OCC [icosapent ethyl, eicosapentaenoic acid ethyl ester]
Placebo-Adjusted % Change (Hematocrit (Day 360)): +.78%
Placebo-Adjusted % Change (Hematocrit (Day 720)): +1.28%
Placebo-Adjusted % Change (Hematocrit (Day 1080)): +1.59%
Placebo-Adjusted % Change (Hematocrit (Day 1440)): +1.86%
ARR [1]: 0.4%
NNT [1]: −234
Risk Ratio (95% CI) [1]: 1.507 (0.952 to 2.386) −2
ARR [2]: 0.3%
NNT [2]: −364
Risk Ratio (95% CI) [2]: 1.273 (0.811 to 1.999) −2
ARR [3]: 0.2%
NNT [3]: −566
Risk Ratio (95% CI) [3]: 1.181 (0.724 to 1.927) −1
ARR [4]: 0.4%
NNT [4]: −282
Risk Ratio (95% CI) [4]: 1.433 (0.826 to 2.487) −2
ARR [5]: 0.7%
NNT [5]: −138
Risk Ratio (95% CI) [5]: 2.208 (1.155 to 4.221) −3
ARR [6]: 0.3%
NNT [6]: −354
Risk Ratio (95% CI) [6]: 1.420 (0.582 to 3.462) −2
ARR [7]: −0.4%
NNT [7]: 228
Risk Ratio (95% CI) [7]: 0.828 (0.612 to 1.120) 1
ARR [8]: −0.6%
NNT [8]: 158
Risk Ratio (95% CI) [8]: 0.784 (0.583 to 1.054) 2
ARR [9]: −1.1%
NNT [9]: 90
Risk Ratio (95% CI) [9]: 0.747 (0.579 to 0.964) 2
ARR [10]: −2.2%
NNT [10]: 45
Risk Ratio (95% CI) [10]: 0.607 (0.469 to 0.785) 2
ARR [11]: −2.1%
NNT [11]: 47
Risk Ratio (95% CI) [11]: 0.650 (0.500 to 0.845) 2
ARR [12]: −0.9%
NNT [12]: 111
Risk Ratio (95% CI) [12]: 0.859 (0.627 to 1.179) 1
Placebo-Adjusted % Change (Hemoglobin (Day 120)): +.53%
Placebo-Adjusted % Change (Hemoglobin (Day 360)): +1%
Placebo-Adjusted % Change (Hemoglobin (Day 720)): +1.51%
Placebo-Adjusted % Change (Hemoglobin (Day 1080)): +2.09%
Placebo-Adjusted % Change (Hemoglobin (Day 1440)): +2.36%
ARR [13]: 0.3%
NNT [13]: −313
Risk Ratio (95% CI) [13]: 1.668 (0.915 to 3.042) −2
ARR [14]: −0.1%
NNT [14]: 961
Risk Ratio (95% CI) [14]: 0.908 (0.571 to 1.442) 1
ARR [15]: 0.2%
NNT [15]: −491
Risk Ratio (95% CI) [15]: 1.144 (0.760 to 1.721) −1
ARR [16]: 1.0%
NNT [16]: −103
Risk Ratio (95% CI) [16]: 2.241 (1.330 to 3.778) −3
ARR [17]: 0.7%
NNT [17]: −145
Risk Ratio (95% CI) [17]: 1.829 (1.036 to 3.229) −3
ARR [18]: 0.4%
NNT [18]: −240
Risk Ratio (95% CI) [18]: 1.383 (0.686 to 2.788) −2
ARR [19]: 0.0%
NNT [19]: −2370
Risk Ratio (95% CI) [19]: 1.013 (0.787 to 1.303) −1
ARR [20]: −0.7%
NNT [20]: 134
Risk Ratio (95% CI) [20]: 0.828 (0.652 to 1.051) 1
ARR [21]: −1.1%
NNT [21]: 93
Risk Ratio (95% CI) [21]: 0.815 (0.657 to 1.011) 1
ARR [22]: −2.3%
NNT [22]: 44
Risk Ratio (95% CI) [22]: 0.703 (0.570 to 0.868) 2
ARR [23]: −2.7%
NNT [23]: 37
Risk Ratio (95% CI) [23]: 0.685 (0.553 to 0.849) 2
ARR [24]: −1.5%
NNT [24]: 67
Risk Ratio (95% CI) [24]: 0.827 (0.630 to 1.085) 1
ARR (Lymphocytes: PCS High >45%): 2.7%
NNT (Lymphocytes: PCS High >45%): −38
Risk Ratio (95% CI) (Lymphocytes: PCS High >45%): 1.543 (1.296 to 1.838) −2
ARR (Lymphocytes: PCS Low <30%): −6.3%
NNT (Lymphocytes: PCS Low <30%): 16
Risk Ratio (95% CI) (Lymphocytes: PCS Low <30%): 0.924 (0.904 to 0.945) 1
Placebo-Adjusted % Change (Neutrophils (Day 120)): +1.11%
Placebo-Adjusted % Change (Neutrophils (Day 360)): −3%
Placebo-Adjusted % Change (Neutrophils (Day 720)): −4.7%
Placebo-Adjusted % Change (Neutrophils (Day 1080)): −4.52%
Placebo-Adjusted % Change (Neutrophils (Day 1440)): −3.06%
Placebo-Adjusted % Change (Neutrophils/Leukocytes (Ratio) (Day 120)): −2.06%
Placebo-Adjusted % Change (Neutrophils/Leukocytes (Ratio) (Day 360)): −3.87%
Placebo-Adjusted % Change (Neutrophils/Leukocytes (Ratio) (Day 720)): −4.61%
Placebo-Adjusted % Change (Neutrophils/Leukocytes (Ratio) (Day 1080)): −4.21%
Placebo-Adjusted % Change (Neutrophils/Leukocytes (Ratio) (Day 1440)): −4.1%
AR: ALP >2x ULN (AE table) (human, in vivo): 0.6%
AR: ALP > ULN (AE table) (human, in vivo): 9.8%
AR: Blood uric acid increased (AE table) (human, in vivo): 1.0%
AR: Gout (AE table) (human, in vivo): 3.6%
AR: Hepatomegaly (AE table) (human, in vivo): 0.4%
AR: Hyperuricemia (AE table) (human, in vivo): 0.6%
AR: Spleen disorders (AE table) (human, in vivo): 0.3%
AR: Splenomegaly (AE table) (human, in vivo): 0.2%
ARR: ALP >2x ULN (AE table) (human, in vivo): −0.3%
ARR: ALP > ULN (AE table) (human, in vivo): −4.5%
ARR: Blood uric acid increased (AE table) (human, in vivo): 0.1%
ARR: Gout (AE table) (human, in vivo): 1.1%
ARR: Hepatomegaly (AE table) (human, in vivo): −0.4%
ARR: Hyperuricemia (AE table) (human, in vivo): 0.3%
ARR: Spleen disorders (AE table) (human, in vivo): −0.3%
ARR: Splenomegaly (AE table) (human, in vivo): −0.1%
Lab Reported Events: % of subjects (human, in vivo): (79.9) %
Lab Reported Events: number of subjects (human, in vivo): 3269
NNT: ALP >2x ULN (AE table) (human, in vivo): 341
NNT: ALP > ULN (AE table) (human, in vivo): 22
NNT: Blood uric acid increased (AE table) (human, in vivo): −680
NNT: Gout (AE table) (human, in vivo): −93
NNT: Hepatomegaly (AE table) (human, in vivo): 256
NNT: Hyperuricemia (AE table) (human, in vivo): −292
NNT: Spleen disorders (AE table) (human, in vivo): 372
NNT: Splenomegaly (AE table) (human, in vivo): 682
Platelet Count: PCS High >500 × 10^3/uL (human, in vivo): 16 (0.4%) n(%)
Platelet Count: PCS High >500 × 10^3/uL: % of subjects (human, in vivo): (0.4) %
Platelet Count: PCS High >500 × 10^3/uL: number of subjects (human, in vivo): 16
Platelet Count: PCS Low <100 × 10^3/uL (human, in vivo): 19 (0.5%) n(%)
Platelet Count: PCS Low <100 × 10^3/uL: % of subjects (human, in vivo): (0.5) %
Platelet Count: PCS Low <100 × 10^3/uL: number of subjects (human, in vivo): 19
Risk Ratio (95% CI): ALP >2x ULN (AE table) (human, in vivo): 0.600 (0.335 to 1.075) 2
Risk Ratio (95% CI): ALP > ULN (AE table) (human, in vivo): 0.624 (0.545 to 0.714) 2
Risk Ratio (95% CI): Blood uric acid increased (AE table) (human, in vivo): 1.154 (0.753 to 1.768) −1
Risk Ratio (95% CI): Gout (AE table) (human, in vivo): 1.347 (1.075 to 1.687) −2
Risk Ratio (95% CI): Hepatomegaly (AE table) (human, in vivo): 0.304 (0.131 to 0.709) 4
Risk Ratio (95% CI): Hyperuricemia (AE table) (human, in vivo): 1.737 (0.990 to 3.050) −3
Risk Ratio (95% CI): Spleen disorders (AE table) (human, in vivo): 0.353 (0.139 to 0.894) 4
Risk Ratio (95% CI): Splenomegaly (AE table) (human, in vivo): 0.400 (0.126 to 1.275) 3
WBC Differential (Lymphocytes): PCS High >45%: % of subjects (human, in vivo): (7.4) %
WBC Differential (Lymphocytes): PCS High >45%: number of subjects (human, in vivo): 301
WBC Differential (Lymphocytes): PCS Low <30%: % of subjects (human, in vivo): (75.0) %
WBC Differential (Lymphocytes): PCS Low <30%: number of subjects (human, in vivo): 3067
WBC Differential (Monocytes): PCS High >6% (human, in vivo): 3101 (78.0%) n(%)
